We go through one compound from patent publication US20100086519A1, “Treatment of Hepatitis C Infection With Metalloporphyrins” (The Charlotte-Mecklenburg Hospital Authority d/b/a …, priority 2008, published 2010).

Like-named read-outs stand apart in the source and are kept apart here.

Test [1] has as its target T1, HCV NS5A protein (Hepatitis C virus genotype 1b, UniProt Q9WMX2). Briefly: NS5A protein levels in Huh-7/T7 cells transfected with pFK-Con1/GND. The following applies: 24 h, FIG. 7C. Type of test: cell-based. More on the design: processed into structural (C, E1, E2) and nonstructural (NS2, NS3, NS4A, NS4B, NS5A and NS5B) proteins; expressed in transfected cells; host or cells: Huh-7/T7 cells transiently transfected with pFK-Con1/GND. From the text: (§1) Biochim Biophys Acta 2008; 1779:195-203.
(§2) Total RNA and proteins were extracted.

A further test has as its system HCV core protein. The settings on record: J6/JFH1 RNA transfected Huh-7.5 cells.
In a further test the test system is J6/JFH1 HCV RNA. Briefly: HCV RNA by qRT-PCR in Huh-7.5 cells transfected with J6/JFH1 RNA. The settings on record: 10 μM, FIG. 8E. The test is classed as cell-based, hepatitis C virus. On the procedure: (§3) Rice (the Rockefeller University, New York, N.Y.).
(§4) Total RNA from treated cells was extracted and cDNA was synthesized as described in Hou et al. Real time quantitative RT-PCR was performed using a MyiQ™ Single Color Real-Time PCR Detection System from Bio-Rad (Hercules, Calif.) and iQ™ SYBR Green Supermix Real-Time PCR kit (Bio-Rad). Samples without template and without reverse transcriptase were included as negative controls, which, as expected, produced negligible signals (Ct values>35). Fold-change values were calculated by comparative Ct analysis after normalizing for the quantity of GAPDH in the same samples.
A general note: Real-time PCR tracks product formation cycle by cycle.

Test [2] has as its target T1, HCV NS5A protein. Kind of test: NS5A protein levels by Western blot in 9-13 cells. More on the design: processed into structural (C, E1, E2) and nonstructural (NS2, NS3, NS4A, NS4B, NS5A and NS5B) proteins; expressed in transfected cells; host or cells: 9-13 cells (human hepatoma cells with a replicating HCV NS3-NS5B region). Type of test: cell-based.
Source text: (§5) Bartenschlager (University of Heidelberg, Heidelberg, Germany).
as §1
(In western blotting, separated proteins are transferred to a membrane and probed.)

The next test relates to J6/JFH1 HCV. Kind of test: HCV RNA by qRT-PCR in Huh-7.5 cells infected with J6/JFH1 HCV. The test is classed as cell-based, hepatitis C virus. The following applies: 10 μM, FIG. 8F. On the procedure: as §3, §4
The next test deals with HCV replicon RNA. Briefly: HCV RNA by qRT-PCR in Con1 full-length HCV replicon Huh-7.5 cells. The settings on record: different concentrations, 24 hours, FIG. 7A. The test is classed as cell-based, hepatitis C virus. On the procedure:
as §5, §4, §2

T1 sequence (Q9WMX2 1973-2419): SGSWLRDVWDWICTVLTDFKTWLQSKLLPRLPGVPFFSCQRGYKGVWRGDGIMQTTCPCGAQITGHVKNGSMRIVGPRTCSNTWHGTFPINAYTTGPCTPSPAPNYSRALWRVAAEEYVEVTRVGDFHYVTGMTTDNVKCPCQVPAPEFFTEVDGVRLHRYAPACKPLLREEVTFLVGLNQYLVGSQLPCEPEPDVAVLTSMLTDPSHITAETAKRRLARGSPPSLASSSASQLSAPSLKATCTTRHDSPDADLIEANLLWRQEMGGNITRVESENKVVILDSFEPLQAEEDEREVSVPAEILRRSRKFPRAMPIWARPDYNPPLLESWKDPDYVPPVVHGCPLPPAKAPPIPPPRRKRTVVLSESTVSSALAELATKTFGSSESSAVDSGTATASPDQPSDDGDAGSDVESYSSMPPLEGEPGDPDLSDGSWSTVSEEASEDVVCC
Procedure for HCV core protein: In brief, total proteins (30-50 μg) were separated on 4-15% gradient SDS-PAGE gels. After electrophoretic transfer onto ImmunBlot PVDF membrane, membranes were blocked for 1 hour in PBS containing 5% nonfat dry milk and 0.1% Tween-20, and then incubated overnight with primary antibody at 4° C. The dilutions of the primary antibodies were as follows: 1:2000 for anti-HCV NS5A and anti-GAPDH antibodies, and 1:5000 for anti-HCV core antibody. The membranes were then incubated for 1 hour with horseradish peroxidase-conjugated secondary antibodies (dilution 1:10,000). Finally, the bound antibodies were visualized with the ECL-Plus chemiluminescence system according to the manufacturer's protocol. A Kodak 1DV3.6 computer-based imaging system (Rochester, N.Y.) was used to measure the relative optical density of each specific band obtained after Western blotting. Data are expressed as percentages of the controls (corresponding to the value obtained with the vehicle-treated cells), which were assigned values of one.
For HCV RNA transfection, Huh-7.5 cells were plated in 24-well plates one day prior to transfection and transfected at 70˜80% confluence. […]
Huh-7.5 cells were transfected with 2 μg/well of J6/JFH1 RNA by Lipofectamine 2000. […] HCV RNA was quantified by qRT-PCR, and HCV core, NS5A and GAPDH protein levels were measured by Western blots.

With `CCC1=C(C)c2cc3[nH]c(cc4nc(cc5[n-]c(cc1n2)c(C)c5CCC(=O)[O-])C(CCC(=O)[O-])=C4C)c(C)c3CC.[H+].[Zn+2]` [ZnMP, Zinc mesoporphyrin], the NS5A protein levels result was “markedly decreased” on HCV NS5A protein [1]; “slightly increased” on HCV NS5A protein [2] (9-13 cells, 10 μM ZnMP alone, 10 and 24 hours, FIG. 9B); “rapid and marked down-regulation” on HCV NS5A protein [2] (9-13 cells, 10 μM ZnMP alone, as little as 2 hours, FIG. 9B); “decreased” at HCV NS5A protein [2] (9-13 cells, 10 μM, 4 hours, FIG. 2A); “marked decrease” at HCV NS5A protein [2] (9-13 cells, ZnMP 0, 1, 5, 10 μM, 4 hours, FIG. 1A). For the same compound, the core protein levels entry in the test with HCV core protein (4 h) is “not affected”; in the test on HCV core protein (24 h), “decrease”. The figures for the “decrease of HCV RNA levels” value in the test on J6/JFH1 HCV RNA and in the test with J6/JFH1 HCV were roughly 70% and roughly 90%, respectively. Further, the “NS5A protein levels, time course” value on HCV NS5A protein [2] (9-13 cells, 10 μM, 0, 2, 4, 6 h, FIG. 2B) is “markedly and rapidly decreased”. Besides, on HCV NS5A protein [2] (9-13 cells, 10 μM, 4 h, FIG. 6A), the “NS5A protein levels before immunoprecipitation” value was “down-regulation”. For the same compound, the “reduction of NS5A protein levels” value at HCV NS5A protein [2] (about 1 μM, 4 hours, stated for bar graphs of FIGS. 1A/1B (9-13 and Con1 cells)) is reported as “about 60%”. For the same compound, in the test on HCV replicon RNA, the “viral RNA levels” value is given as “dose-dependent reduction”.
